Source: patent US20060269935A1, “Genetic predictor for clinical use of drugs used in the treatment of neurological conditions” (UCL Biomedica PLC, priority 2005, published 2006)
Read-outs that look alike come from different tables or passages of the source.

How the values were obtained:
[1] = system: patients with a diagnosis of epilepsy; conditions: human, in vivo
From the text: In this study we have considered the known functional alleles *2 and *3 at the CYP2C9 gene, and the putatively functional 3435C>T polymorphism in the ABCB1 gene. As no common functional variants are known for SCN1A, we used a haplotype tagging strategy (Weale et al., Am J. Hum. Genet. 73, 551-565, 2003). […] For carbamazepine, we related variation in both SCN1A and ABCB1 to maximum dose in 425 patients. Finally, we tested for association with presence or absence of ADRs. […] In most, but not all cases the maximum dose used here will also be the maintenance dose, since starting doses tend to be lower than what is required (see discussion below).
The study was approved by the relevant institutional Ethics Committees. Patients who self-identified, or were determined by the treating physician, as being of North Western European origin with a diagnosis of epilepsy were recruited from the specialised epilepsy clinic of the National Hospital for Neurology and Neurosurgery after written informed consent was obtained. Extensive clinical data were obtained and stored in a computerized database. […]
The following clinical details were recorded whenever available: date when phenytoin/carbamazepine was started and stopped, maximum dosage reached, response and occurrence of ADRs. […]

CYP2C9*2 = CYP2C9*2 (Homo sapiens, UniProt P11712, R144C); conditions: in vitro expression; cited from earlier work
[2] = cited from earlier work; for Serum concentrations of phenytoin: single dose, healthy volunteers
CYP2C9 = CYP2C9 (Homo sapiens, UniProt P11712); conditions: estimated; cited from earlier work

Compound | Average dose range across genotypes [1] [mg] | Reduction in phenytoin clearance compared to *1 (CYP2C9*2) [% reduction in] | Serum concentrations of phenytoin ([2]; *2 carriers) | Maximal elimination rates ([2]; *3 carriers compared with *1/1 patients) | Serum concentrations of phenytoin ([2]; *3 carriers) | Share of phenytoin inactivation for which CYP2C9 is responsible (CYP2C9)
O=C1NC(=O)C(c2ccccc2)(c2ccccc2)N1 [phenytoin, 5,5-diphenylhydantoin] | 127 | 29 | *2 carriers have increased serum | *3 carriers have significantly lower | patients(33, 34) and increased serum | up to 90%
NC(=O)N1c2ccccc2C=Cc2ccccc21 [carbamazepine, 5H-dibenz[b,f]azepine-5-carboxamide] | 230 |  |  |  |  | 
